Measurements taken from patent US20260242371A1, “LIPID PRODRUGS OF BROM[…] USES THEREOF” (priority 2023, published 2026).

Experiments:
[1] = Pharmacokinetics of 2-bromo-LSD prodrugs in rats; conditions: male, Sprague-Dawley, rat, plasma, iv
[2] = biological target: 5-HT2B receptor (Homo sapiens, UniProt P41595); conditions: cited from earlier work
[3] = Metabolism identification (MetID) assay in rat hepatocytes; conditions: 10 μM bromolysergide, 3 hours, 37 degrees Celsius
[4] = Metabolism identification (MetID) assay in human liver microsomes S9 fraction; conditions: 10 μM bromolysergide, human liver microsomes S9 1 mg/mL, NADPH, one hour, 37° C.
[5] = Metabolism identification (MetID) assay in human hepatocytes; conditions: 10 μM bromolysergide, 3 hours, 37 degrees Celsius
[6] = Pharmacokinetics of 2-bromo-LSD prodrugs in non-human primates; conditions: cynomolgus monkey, plasma; for AUC(0-t) / Cmax: iv
[7] = patients given up to 22 mg; Schneckloth, R., et al., Circulation 1957; cited from earlier work
[8] = biological target: 5-HT2A receptor (Homo sapiens, UniProt P28223); conditions: Lewis, V. et al, Cell Reports 2023; cited from earlier work
5-HT2A receptor, sequence (P28223 whole entry): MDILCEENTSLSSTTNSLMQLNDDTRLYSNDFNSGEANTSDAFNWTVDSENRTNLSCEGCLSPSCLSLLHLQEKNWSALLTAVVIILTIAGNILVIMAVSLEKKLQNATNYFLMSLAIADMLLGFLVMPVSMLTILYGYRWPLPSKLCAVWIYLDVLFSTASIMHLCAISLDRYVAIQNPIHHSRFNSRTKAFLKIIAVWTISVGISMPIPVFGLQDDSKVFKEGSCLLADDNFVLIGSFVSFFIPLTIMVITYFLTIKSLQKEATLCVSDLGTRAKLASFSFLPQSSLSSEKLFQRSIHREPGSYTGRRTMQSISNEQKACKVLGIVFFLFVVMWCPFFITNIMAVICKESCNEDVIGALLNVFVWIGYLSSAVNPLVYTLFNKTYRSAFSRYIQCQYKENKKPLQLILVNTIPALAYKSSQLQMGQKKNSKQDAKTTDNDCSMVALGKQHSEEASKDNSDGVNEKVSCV

5-HT2B receptor, sequence (P41595 whole entry): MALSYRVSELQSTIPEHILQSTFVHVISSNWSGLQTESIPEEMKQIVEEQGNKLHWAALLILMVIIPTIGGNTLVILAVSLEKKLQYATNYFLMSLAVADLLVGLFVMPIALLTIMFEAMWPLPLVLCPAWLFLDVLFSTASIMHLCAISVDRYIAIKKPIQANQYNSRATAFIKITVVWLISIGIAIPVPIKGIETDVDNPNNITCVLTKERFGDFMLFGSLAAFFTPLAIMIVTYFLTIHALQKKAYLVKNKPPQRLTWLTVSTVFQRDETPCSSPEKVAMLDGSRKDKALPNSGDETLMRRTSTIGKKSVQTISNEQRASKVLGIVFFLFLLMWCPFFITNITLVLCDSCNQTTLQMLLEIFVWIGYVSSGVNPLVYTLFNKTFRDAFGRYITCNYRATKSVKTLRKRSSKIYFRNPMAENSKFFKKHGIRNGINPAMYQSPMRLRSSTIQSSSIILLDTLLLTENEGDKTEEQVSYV

Compound	% of Total Rat [3] [%]	% of Total Human_LM [4] [%]	% of Total Human [5] [%]	also measured
CCN(CC)C(=O)[C@@H]1C=C2c3cccc4[nH]c(Br)c(c34)C[C@H]2N(C)C1 [Compound 2BL, 2-bromo-lysergic acid diethylamide]	18.5	30.0	41.3	AUC(0-t) [1]: 0.93 ± 0.1 µM·h; Cmax [1]: 890 ± 60 nM; activity at 5-HT2B receptor [2]: antagonist; Tmax ([6]; oral): ~2 h; AUC(0-t) ([6]; female): 340 ± 38 ng·h/mL; Cmax ([6]; female): 340 ± 58 ng/mL; AUC(0-t) ([6]; male): 300 ± 40 ng·h/mL; Cmax ([6]; male): 280 ± 8.8 ng/mL; hallucinations in patients [7]: no hallucinations reported; activity at 5-HT2A receptor [8]: partial agonism
CCN(CC)C(=O)[C@@H]1C=C2c3cccc4[nH]c(O)c(c34)C[C@H]2N(C)C1 [Compound M339]	3.9	4.4	4.8	
CCN(CC)C(=O)[C@@H]1C=C2c3cccc4[nH]c(Br)c(c34)C[C@H]2NC1 [Compound M387]	2.5	3.0	3.0	
CN1C[C@H](C(N)=O)C=C2c3cccc4[nH]c(Br)c(c34)C[C@H]21 [Compound M345]	0.1	0.2	0.4	
CN1C[C@H](C(=O)O)C=C2c3cccc4[nH]c(Br)c(c34)C[C@H]21 [Compound M346]	0.5	0.9	14.3	
CCNC(=O)[C@@H]1C=C2c3cccc4[nH]c(Br)c(c34)C[C@H]2NC1 [Compound M359]	0.7	1.2	1.0	
CCNC(=O)[C@@H]1C=C2c3cccc4[nH]c(Br)c(c34)C[C@H]2N(C)C1 [Compound M373]	7.7	19.6	10.3	
